Results reported in patent US12595248B2, “PRMT5 inhibitors” (Merck Sharp & Dohme LLC, priority 2019, dated 2026).
Read-outs that look alike come from different tables or passages of the source.

Key:
[1] = molecular target: T1, PRMT5-MEP50 enzyme complex (Homo sapiens, UniProt O14744); assay: PRMT5-MEP50 Enzyme Methylation Assay (Version B); type: biochemical
T1 construct: Full-length (FL)-PRMT5-MEP50 enzyme complex (recombinant proteins from baculovirus-transfected Sf21 cells: FL-PRMT5; MW=73837 kDa and FL-MEP50; MW=38614); made in house; host or cells: baculovirus-transfected Sf21 cells
T1 sequence (O14744 whole entry): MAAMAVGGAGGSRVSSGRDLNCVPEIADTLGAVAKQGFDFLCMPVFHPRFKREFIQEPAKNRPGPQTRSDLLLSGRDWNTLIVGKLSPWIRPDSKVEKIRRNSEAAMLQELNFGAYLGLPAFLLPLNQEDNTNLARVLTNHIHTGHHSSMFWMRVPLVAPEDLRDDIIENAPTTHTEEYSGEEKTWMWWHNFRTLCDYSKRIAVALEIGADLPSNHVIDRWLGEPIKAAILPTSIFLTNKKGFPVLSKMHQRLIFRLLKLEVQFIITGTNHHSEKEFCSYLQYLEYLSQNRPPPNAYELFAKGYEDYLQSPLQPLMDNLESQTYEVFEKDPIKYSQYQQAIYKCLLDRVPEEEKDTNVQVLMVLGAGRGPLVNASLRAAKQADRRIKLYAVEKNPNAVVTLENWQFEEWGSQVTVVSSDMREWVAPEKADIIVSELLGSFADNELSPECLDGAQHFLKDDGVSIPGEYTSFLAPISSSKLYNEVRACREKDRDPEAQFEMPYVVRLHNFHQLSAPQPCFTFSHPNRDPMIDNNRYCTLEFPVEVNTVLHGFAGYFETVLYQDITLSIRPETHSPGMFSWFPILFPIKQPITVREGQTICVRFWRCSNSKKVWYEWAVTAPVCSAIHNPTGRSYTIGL
T1 sequence (Q9BQA1 whole entry partner): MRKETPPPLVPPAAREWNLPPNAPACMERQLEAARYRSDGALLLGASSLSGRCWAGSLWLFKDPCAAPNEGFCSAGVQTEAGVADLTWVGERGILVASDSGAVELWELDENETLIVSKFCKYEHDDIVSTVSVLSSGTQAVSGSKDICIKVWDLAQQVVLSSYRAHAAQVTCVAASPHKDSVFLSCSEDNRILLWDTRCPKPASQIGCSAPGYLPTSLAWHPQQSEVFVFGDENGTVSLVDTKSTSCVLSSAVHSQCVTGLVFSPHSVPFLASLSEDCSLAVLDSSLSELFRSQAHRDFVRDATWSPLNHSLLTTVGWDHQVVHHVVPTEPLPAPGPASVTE
Experimental: PRMT5-MEP50 Enzyme Methylation Assay (Version B)
PRMT5-MEP50 biochemical assay is a direct measurement of the methylation activity of the enzyme complex on a short peptide substrate derived from the N-terminus of H4 histone. Methylation experiment was performed with recombinant PRMT5-MEP50 protein complex. The assessment of inhibitory effect (EC50) of small molecules was measured by the effectiveness of the compounds to inhibit this reaction.
In this assay, the potency (EC50) of each compound was determined from a twenty-point (1:2 serial dilution; top compound concentration of 100000 nM) titration curve using the following outlined procedure. To each well of a white ProxiPlus 384 well-plate, 100 nL of compound (1% DMSO in final assay volume of 10 μL) was dispensed, followed by the addition of 8 μL of 1× assay buffer (50 mM Bicine pH 8.0, 1 mM DTT, 0.004% Tween20, 0.01% BSA) containing 0.625 nM of Full-length (FL)-PRMT5-MEP50 enzyme complex (recombinant proteins from baculovirus-transfected Sf21 cells: FL-PRMT5; MW=[…] and FL-MEP50; MW=38614). Plates were sealed and placed in a 37° C. humidified chamber for 30 minutes pre-incubation with compounds. Subsequently, each reaction was initiated by the addition of 2 μL 1× assay buffer containing 375 nM biotinylated H4R3 (MeI) peptide, and 75 μM S-(5′-Adenosyl)-L-Methionine Chloride (SAM). The final reaction in each well of 10 μL consists of 0.5 nM PRMT5-MEP50, 75 nM biotinylated-peptide, and 15 μM SAM. Methylation reactions were allowed to proceed for 150 minutes in a sealed plate at 37° C. Reactions were immediately quenched by the addition of 1 μL of 10% formic acid. Plates were then frozen and shipped to SAMDI™ Tech Inc. to determine the percent conversion from […]. Dose-response curves were generated by plotting percent effect (% product conversion; Y-axis) vs. Log 10 compound concentrations (X-axis). EC50 values were determined by non-linear regression according to models for either sigmoidal (4 parameters) or biphasic (7 parameters) dose-response curves.

PRMT5 = molecular target: T2, PRMT5 (Homo sapiens, UniProt O14744); assay: PRMT5 Cell Target Engagement (TE) Assay; type: cell-based; conditions: MCF-7 cells, treated for 3 days, symmetric dimethylation of arginine (SDMA) by high content imaging
T2 construct: seeded with 4000 MCF-7 cells in 30 μl media; endogenous in cells; host or cells: MCF-7 cells
T2 sequence (O14744 whole entry): as the sequence (O14744 whole entry) above
T2 sequence (Q9BQA1 whole entry partner): as the sequence (Q9BQA1 whole entry partner) above
Source text: PRMT5 Cell Target Engagement (TE) Assay
The PRMT5 TE assay is a biomarker assay for identifying compounds that inhibit symmetric dimethylation of arginine (SDMA) of PRMT5 substrates. The following substrates have been reported for PRMT5: histone H2A and H4 R3, Histone H3 R2, Histone H3 R8, spliceosome Sm proteins, ribosomal protein RPS10, p53, FEN1, nucleoplasmin, nucleolin, EGFR and EBNA. The assay focuses on detecting symmetrically dimethylated nuclear proteins using high content imaging technology. Detection of the expression of symmetrically dimethylated nuclear proteins is through a mixture of primary rabbit monoclonal antibodies to SDMA (CST 13222), which in turn recognized by an Alexafluor 488 dye-conjugated anti-rabbit IgG secondary antibody. The IN Cell Analyzer 2200 or Opera-Phenix measures nuclear Alexafluor 488 fluorescent dye intensity that is directly related to the level of expression of symmetrically dimethylated nuclear proteins at the single cell level. Nuclear AF488 dye intensities are compared to the mean value for DMSO treated cells (MIN) to report percent of inhibition for each compound-treated well.
In this assay, the cell potency (EC50) of each compound was determined from a ten point (1:3 serial dilution; top compound concentration of 10000 nM) titration curve using the following outlined procedure. Each well of a BD falcon collagen coated black/clear bottom 384-well plate was seeded with 4000 MCF-7 cells in 30 μl media and allowed to attach for 5 h. Media is ATCC-formulated Eagle's Minimum Essential Medium, Catalog No. 30-2003. To make the complete growth medium, the following components were added to the base medium: 0.01 mg/mL human recombinant insulin; fetal bovine serum to a final concentration of 10%. Additional 30 μl of media containing 2× compounds were added to each well. Cells were treated for 3 days in 37° C. CO2 incubator. On day 3, cells were fixed with Cytofix, permeabilized with 0.4% Triton-X-100/Cytofix, and washed with D-PBS without Ca/Mg. Cells were blocked with Licor Odessey blocking reagent for 1 h at room temperature, followed by incubation with anti-SDMA (1:1000) antibody at 4° C. overnight. 1° antibody was removed, followed by three washings with DPBS without Ca/Mg and 0.05% Tween20. Hoechst (5 μg/mL), Cell Mask deep stain (1:2000) and Alexa488-conjugated goat anti-rabbit IgG (2 μg/mL) was added for 1 h at room temperature. A final washing step (three washes) was performed before sealing plate for imaging on In Cell Analyzer 2200 or Opera-Phenix. Images from analyzer were uploaded to Columbus (at WP or BOS) for image analysis. IC50 values were determined by 4 parameters robust fit of percent fluorescence units vs. (Log10) compound concentrations.

[2] = first of two EC50s: 7 parameters biphasic model, read-out: Enzyme Methylation Assay Version B (EC50_1)
[3] = second of two EC50s: 7 parameters biphasic model, read-out: Enzyme Methylation Assay Version B (EC50_2)
[4] = only one EC50 shown: 4 parameters single site sigmoidal model, 30 min pre-incubation, read-out: Enzyme Methylation Assay Version B (EC50)

Row | Structure (SMILES) | EC50 [1, 2] [nM] | EC50 [1, 3] [nM] | EC50 (PRMT5) [nM] | EC50 [1, 4] [nM]
1 | O=C(c1cn2cc(Br)ccc2n1)N1CC[C@@H](N2CCc3ccccc3C2)[C@H](O)C1 (single isomer, unassigned) [Example 2] | 13 | 5890 | 509 | 
2 | CC(=O)N1CCC(Nc2cc(C(=O)N3CC[C@H](N4CCc5ccccc5C4)[C@@H](O)C3)ccn2)C(F)(F)C1 (single isomer, unassigned) [Example 6] | 4.8 | 2690 | 24 | 
3 | CC(=O)N1CCC(Nc2cc(C(=O)N3CC[C@H](N4CCc5ccccc5C4)[C@@H](O)C3)ccn2)C(F)(F)C1 (single isomer, unassigned) [Example 7] | 16 | 8570 | 326 | 
4 | CC(=O)N1CCC(Nc2cc(C(=O)N3CC[C@@H](N4CCc5ccccc5C4)[C@H](O)C3)ccn2)C(F)(F)C1 (single isomer, unassigned) [Example 8] | ~571 | > 100000 | 9290 | 
5 | CC(=O)N1CCC(Nc2cc(C(=O)N3CC[C@@H](N4CCc5ccccc5C4)[C@H](O)C3)ccn2)C(F)(F)C1 (single isomer, unassigned) [Example 9] | 61 | 8790 | 1680 | 
6 | CCC1Oc2ccc(C(=O)N3CC[C@H](N4CCc5ccccc5C4)[C@@H](O)C3)cc2NC1=O (single isomer, unassigned) [Example 10] | 6.4 | 4620 | 119 | 
7 | CCC1Oc2ccc(C(=O)N3CC[C@H](N4CCc5ccccc5C4)[C@@H](O)C3)cc2NC1=O (single isomer, unassigned) [Example 11] | 1.8 | 1070 | 4.9 | 
8 | CCC1Oc2ccc(C(=O)N3CC[C@@H](N4CCc5ccccc5C4)[C@H](O)C3)cc2NC1=O (single isomer, unassigned) [Example 12] | 106 | 45700 | 6070 | 
9 | CCC1Oc2ccc(C(=O)N3CC[C@@H](N4CCc5ccccc5C4)[C@H](O)C3)cc2NC1=O (single isomer, unassigned) [Example 13] | ~14 | 17600 | 641 | 
10 | CC(=O)N1CCC(Nc2nccc(C(=O)N3CC[C@H](N4CCc5ccccc5C4)[C@@H](O)C3)c2F)C(F)(F)C1 (single isomer, unassigned) [Example 14] | ~20 | 17200 | 275 | 
11 | CC(=O)N1CCC(Nc2nccc(C(=O)N3CC[C@H](N4CCc5ccccc5C4)[C@@H](O)C3)c2F)C(F)(F)C1 (single isomer, unassigned) [Example 15] | 6.8 | 3720 | 57 | 
12 | CC(=O)N1CCC(Nc2nccc(C(=O)N3CC[C@@H](N4CCc5ccccc5C4)[C@H](O)C3)c2F)C(F)(F)C1 (single isomer, unassigned) [Example 16] | 160 | 83200 | 5730 | 
13 | CC(=O)N1CCC(Nc2nccc(C(=O)N3CC[C@@H](N4CCc5ccccc5C4)[C@H](O)C3)c2F)C(F)(F)C1 (single isomer, unassigned) [Example 17] | ~191 | > 100000 | 8420 | 
14 | CC(=O)N1CCC(Nc2cc(C(=O)N3CCC(N4CCc5ccccc5C4)C(O)C3C)ccn2)CC1 (single isomer, unassigned) [Example 20, l-(4-((4-(4-(3,4-dihydroisoquinolin-2(1H)-yl)-3-hydroxy-2-methylpiperidine-1-carbonyl)pyridin-2-yl)amino)piperidin-1-yl)ethan-1-one] | 4.4 | 1500 | 12 | 
15 | CC(=O)N1CCC(Nc2cc(C(=O)N3CCC(N4CCc5ccccc5C4)C(O)C3C)ccn2)CC1 (single isomer, unassigned) [Example 21, 1-(4-((4-(4-(3,4-dihydroisoquinolin-2(1H)-yl)-3-hydroxy-2-methylpiperidine-1-carbonyl)pyridin-2-yl)amino)piperidin-1-yl)ethan-1-one] | ~56 | 25400 | 1580 | 
16 | CC(=O)N1CCC(Nc2cc(C(=O)N3CCC(N4Cc5ccccc5C(F)(F)C4)C(O)C3)c(F)cn2)CC1 (single isomer, unassigned) [Example 24, 1-(4-((4-(-4-(4,4-difluoro-3,4-dihydroisoquinolin-2(1H)-yl)-3-hydroxypiperidine-1-carbonyl)-5-fluoropyridin-2-yl)amino)piperidin-1-yl)ethan-1-one] |  |  | > 10000 | 5560
17 | CC(=O)N1CCC(Nc2cc(C(=O)N3CCC(N4Cc5ccccc5C(F)(F)C4)C(O)C3)c(Cl)cn2)CC1 (single isomer, unassigned) [Example 25, l-(4-((5-chloro-4-(-4-(4,4-difluoro-3,4-dihydroisoquinolin-2(1H)-yl)-3-hydroxypiperidine-1-carbonyl)pyridin-2-yl)amino)piperidin-1-yl)ethan-1-one] | 841 | 33900 | > 10000 | 
18 | O=C(c1ccc(OCC(F)(F)F)nc1)N1CCC(N2Cc3ccccc3C(F)(F)C2)C(O)C1 (single isomer, unassigned) [Example 26, (-4-(4,4-difluoro-3,4-dihydroisoquinolin-2(1H)-yl)-3-hydroxypiperidin-1-yl)(6-(2,2,2-trifluoroethoxy)pyridin-3-yl)methanone] |  |  | > 10000 | 15200
19 | CC(=O)N1CCC(Nc2cc(C(=O)N3CCC(N4Cc5ccccc5C(F)(F)C4)C(O)C3)c(F)cn2)CC1 (single isomer, unassigned) [Example 27, 1-(4-((5-fluoro-4-(-4-(4,4-difluoro-3,4-dihydroisoquinolin-2(1H)-yl)-3-hydroxypiperidine-1-carbonyl)pyridin-2-yl)amino)piperidin-1-yl)ethan-1-one] |  |  | > 10000 | 809
20 | CC(=O)N1CCC(Nc2cc(C(=O)N3CCC(N4Cc5ccccc5C(F)(F)C4)C(O)C3)c(Cl)cn2)CC1 (single isomer, unassigned) [Example 28, l-(4-((5-chloro-4-(-4-(4,4-difluoro-3,4-dihydroisoquinolin-2(lH)-yl)-3-hydroxypiperidine-1 - carbonyl)pyridin-2-yl)amino)piperidin-1-yl)ethan-1-one] | 1270 | 45200 | 1660 | 
